Patent US20230159509A1 (Amathus Therapeutics, Inc., priority 2020, published 2023)

System: human α-synuclein-WT
Assay: α-synuclein expression and aggregation assay in differentiated neuronal ReNcell VM cells
Assay type: cell-based
Method: Assay measuring α-synuclein expression and aggregation in differentiated neuronal ReNcell VM cells transduced with human α-synuclein-WT were used to assess the α-synuclein modulation characteristics of compounds. To this purpose, ReNcell VM cells in growth medium (containing EGF and bFGF) were seeded in 96-well laminin-coated plates.
Three (3) days post-seeding, on DO, the cells were refreshed with differentiation medium (devoid of EGF and bFGF, supplemented with cAMP and GDNF) and transduced with α-synuclein-encoding adenoviruses. On D1, after overnight transduction, the adenoviral medium was removed and test compound CRCs diluted in differentiation medium were added to the cells in biological duplicates (i.e. in wells located on separate assay plates processed on the same day). The assay includes a compound refreshment on D4. On each plate tested, up to six (6) vehicle control samples (0.1% DMSO) and up to six (6) positive control samples (10 μM KU 0063794) were included. Furthermore, each assay run includes an 8-point CRC of the reference compound KU 0063794. After six (6) days of compound treatment (on D7), the cells were fixed using 3.7% formaldehyde.
Assay readouts were aggregate-selective (MJFR-14) and α/β-synuclein (Syn205) immunoreactivity, quantified using high-content analysis with algorithms for Density×Area (D×A). Co-staining of cell nuclei with DAPI is performed to quantify cell number as a measure of potential toxicity. Synuclein immunoreactivity (D×A) was normalized for the number of nuclei (nuc) per imaged well (D×A/nuc). Compound performance was evaluated by efficacy (percentage inhibition (PIN) relative to positive control) and potency (pIC50, when calculable) determination.
Assay quality was confirmed using the following pre-set criteria: Toxicity: ≤25% nuclei loss compared to average DMSO control, Coefficient of variation (CV): ≤20% CV for DMSO control, Assay window: ≥2.0 for Syn205, and Assay window: ≥1.5 for MJF-14.

SMILES: COc1ncc(NC(=O)c2csc(-c3ccccc3)n2)cc1S(=O)(=O)Nc1c(C)cccc1C [compound 1178]
- MJFR-14 Max efficacy (PE) (MJFR-14): 36.2
- MJFR-14 Max efficacy (PIN) (MJFR-14, percentage inhibition relative to positive control (10 μM KU 0063794)): 52.1
- Syn205 Max efficacy (PE) (Syn205): 44.9
- Syn205 Max efficacy (PIN) (Syn205, percentage inhibition relative to positive control (10 μM KU 0063794)): 64.7
- MJFR-14 Potency (pIC50) (aggregate-selective (MJFR-14) immunoreactivity, D×A/nuc): 5.6
- Syn205 Potency (pIC50) (α/β-synuclein (Syn205) immunoreactivity, D×A/nuc): 5.6
